Experimental findings from patent US7211594B2, “Indazole compounds and compositions thereof as JNK inhibitors and for the treatment of diseases associated therewith” (Signal Pharmaceuticals, LLC, priority 2000, dated 2007) are described below.

For `Nc1ccc2[nH]nc(-c3ccccc3)c2c1` [Example 8, 5-Amino-3-phenyl-1H-indazole], the melting point – broadly, the temperature, or range, at which the solid turns liquid – was found to be 104 °C.
Then `O=[N+]([O-])c1ccc2[nH]nc(-c3ccccc3)c2c1` [Example 7, 5-Nitro-3-phenyl-1H-indazole], with 185 to 186 °C.
Take `COc1ccc(-c2n[nH]c3ccc([N+](=O)[O-])cc23)cc1OC` [Example 23, 3-(3,4-Dimethoxyphenyl)-5-nitro-1H-indazole]: the melting point lay in the range of 172 to 173 °C.
`COc1ccc(-c2n[nH]c3ccc(N)cc23)cc1.Cl` [Example 34, 5-Amino-3-(4-methoxyphenyl)-1H-indazole Hydrochloride]: the melting point was 240 °C (dec.).
`FC(F)(F)c1ccc2[nH]nc(-c3ccccc3)c2c1` [Example 5, 3-Phenyl-5-trifluoromethyl-1H-indazole] showed a melting point of 152 °C.
Then `COc1ccccc1-c1n[nH]c2ccccc12` [Example 3, 3-(2-Methoxyphenyl)-1H-indazole], with 99 °C; and `Fc1ccc2[nH]nc(-c3ccccc3)c2c1` [Example 6, 5-Fluoro-3-phenyl-1H-indazole], with 124 to 125 °C.
Compound `Fc1ccc(-c2n[nH]c3ccccc23)cc1` [Example 4, 3-(4-Fluorophenyl)-1H-indazole] registered a melting point of 126 °C.
`COc1ccc(-c2n[nH]c3ccc(N)cc23)cc1OC.O=C(O)C(F)(F)F`: the melting point was 150 °C (dec.).
Then `COc1ccc(-c2n[nH]c3ccc([N+](=O)[O-])cc23)cc1` [Example 21, 3-(4-Methoxyphenyl)-5-nitro-1H-indazole], with 153 °C.
On to `O=[N+]([O-])c1cccc(-c2n[nH]c3ccc([N+](=O)[O-])cc23)c1`, for which the melting point was 249 to 251 °C.
